According to patent US5449752A, “Polypeptides with affinity to lipopolysaccharides and their uses” (Seikagaku Kogyo K.K., priority 1991, dated 1995):
≈ marks a conversion by molar mass, not a printed value. Positions of bridges follow the written chain, without caps; N, C: chain ends. Residues, ends and D or L forms follow the SMILES beside them.

Legend:
[1] = test system: MT-4 cells; assay: Cytotoxicity on virus-noninfected MT-4 cells (MTT method); assay type: cell-based; conditions: 37° C., 5 days
Experimental: (§1) HIV-infected MT-4 cells (2.5×10^4 cells/well, multiplicity of infection (MOI): 0.001) immediately after infection were added together with the test substance with various changes of the concentration to a 96-well microtitre plate. After incubation at 37° C. for 5 days in a CO2 incubator, the number of survivor cells was measured by the MTT method [Pauwels et al.; J. Virol. Methods, 20, 309-321 (1988)]. The antiviral activity is expressed as a concentration at which cell death due to HIV infection is 50% inhibited (EC50 : 50% effective concentration). On the other hand, in order to know the cytotoxicity of the test substance on the MT-4 cells, virus-noninfected cells are incubated, likewise as above, together with the test compound with various changes of the concentration. The cytotoxicity is expressed as 50% cytotoxic concentration […] due to the test substance. Further, the rough ratio of CC50 to EC50 (CC50 /EC50) is expressed as an effective ratio (SI=selectivity index).

[2] = test system: HIV; assay: Antiviral activity against HIV in HIV-infected MT-4 cells (MTT method); assay type: cell-based, human immunodeficiency virus; conditions: for EC50 (concentration at which cell death due to HIV infection is 50% inhibited): HIV-infected MT-4 cells, MOI 0.001, 37° C., 5 days, MTT method; for selectivity in killing HIV infected cells (in words): MT-4 cells, Table III; for selectivity index higher than for any of the known high endotoxin affinity compounds: compared with Tachyplesins and Polyphemusins of Table III
Experimental: The antiviral activity-against HIV of the polypeptide (1) synthesized in Example 1 as well as polypeptides (2), (3), (4), (7), (12), (13), (14), (20), (21) and (26) was tested and evaluated according to the following method.
as §1

CC[C@H](C)[C@@H]1NC(=O)CNC(=O)[C@H](CCCNC(=N)N)NC(=O)[C@H](Cc2ccc(O)cc2)NC(=O)[C@@H]2CSSC[C@H](NC1=O)C(=O)N[C@@H](Cc1ccc(O)cc1)C(=O)N[C@@H](CCCNC(=N)N)C(=O)N[C@@H](CCCCN)C(=O)N[C@H](C(=O)N[C@@H](CCCNC(=N)N)C(N)=O)CSSC[C@H](NC(=O)[C@H](Cc1c[nH]c3ccccc13)NC(=O)[C@@H](N)CCCNC(=N)N)C(=O)N[C@@H](Cc1ccccc1)C(=O)N[C@@H](CCCNC(=N)N)C(=O)N[C@@H](C(C)C)C(=O)N2 [Tachyplesin II, ArgTrpCysPheArgValCysTyrArgGlyIleCysTyrArgLysCysArg NH2, reference compound] (H-RWCFRVCYRGICYRKCR-NH2; disulfide 3-16, 7-12)
CC50 (50% cytotoxic concentration) [1]: 36 µg/mL (≈ 15.9 µM) | SI (CC50 /EC50) ([2]; rough ratio of CC50 to EC50, MT-4 cells): 6

N=C(N)NCCC[C@H](NC(=O)[C@H](CCCNC(=N)N)NC(=O)[C@@H]1CSSC[C@H](NC(=O)[C@H](Cc2c[nH]c3ccccc23)NC(=O)[C@@H](N)CCCNC(=N)N)C(=O)N[C@@H](Cc2ccc(O)cc2)C(=O)N[C@@H](CCCNC(=N)N)C(=O)N[C@@H](CCCCN)C(=O)N[C@H]2CSSC[C@H](NC(=O)[C@H](Cc3ccccc3)NC(=O)CNC(=O)[C@H](CCCCN)NC(=O)[C@H](Cc3ccc(O)cc3)NC2=O)C(=O)N[C@@H](Cc2ccc(O)cc2)C(=O)N[C@@H](CCCNC(=N)N)C(=O)N[C@@H](CCCCN)C(=O)N1)C(N)=O [polypeptide (4), ArgTrpCysTyrArgLysCysTyrLysGlyPheCysTyrArgLysCysArgArgNH2] (H-RWCYRKCYKGFCYRKCRR-NH2; disulfide 3-16, 7-12; N-terminus assumed)
CC50 (50% cytotoxic concentration) [1]: 338 µg/mL (≈ 137 µM) | EC50 (concentration at which cell death due to HIV infection is 50% inhibited) [2]: 2.75 µg/mL (≈ 1.11 µM)

N=C(N)NCCC[C@H](NC(=O)[C@@H]1CSSC[C@H](NC(=O)[C@H](Cc2c[nH]c3ccccc23)NC(=O)[C@H](CCCNC(=N)N)NC(=O)[C@@H](N)CCCNC(=N)N)C(=O)N[C@@H](Cc2ccc(O)cc2)C(=O)N[C@@H](CCCNC(=N)N)C(=O)N[C@@H](CCCCN)C(=O)N[C@H]2CSSC[C@H](NC(=O)[C@H](Cc3ccc(O)cc3)NC(=O)CNC(=O)[C@H](CCCNC(=N)N)NC(=O)[C@H](Cc3ccc(O)cc3)NC2=O)C(=O)N[C@@H](Cc2ccc(O)cc2)C(=O)N[C@@H](CCCNC(=N)N)C(=O)N[C@@H](CCCCN)C(=O)N1)C(N)=O [polypeptide (14), ArgArgTrpCysTyrArgLysCysTyrArgGlyTyrCysTyrArgLysCysArgNH2] (H-RRWCYRKCYRGYCYRKCR-NH2; disulfide 4-17, 8-13; N-terminus assumed)
CC50 (50% cytotoxic concentration) [1]: 52 µg/mL (≈ 20.7 µM) | EC50 (concentration at which cell death due to HIV infection is 50% inhibited) [2]: 0.018 µg/mL (≈ 0.00716 µM) | selectivity in killing HIV infected cells (in words) [2]: particularly selective | selectivity index higher than for any of the known high endotoxin affinity compounds [2]: at least 7 fold

N=C(N)NCCC[C@H](NC(=O)[C@@H]1CSSC[C@H](NC(=O)[C@H](Cc2c[nH]c3ccccc23)NC(=O)[C@@H](N)CCCNC(=N)N)C(=O)N[C@@H](Cc2ccc(O)cc2)C(=O)N[C@@H](CCCNC(=N)N)C(=O)N[C@@H](CCCCN)C(=O)N[C@H]2CSSC[C@H](NC(=O)[C@H](Cc3ccc(O)cc3)NC(=O)CNC(=O)[C@H](CCCCN)NC(=O)[C@H](Cc3ccc(O)cc3)NC2=O)C(=O)N[C@@H](Cc2ccc(O)cc2)C(=O)N[C@@H](CCCNC(=N)N)C(=O)N[C@@H](CCCCN)C(=O)N1)C(N)=O [polypeptide (26), ArgTrpCysTyrArgLysCysTyrLysGlyTyrCysTyrArgLysCysArgNH2] (H-RWCYRKCYKGYCYRKCR-NH2; disulfide 3-16, 7-12; N-terminus assumed)
CC50 (50% cytotoxic concentration) [1]: 165 µg/mL (≈ 70.8 µM) | EC50 (concentration at which cell death due to HIV infection is 50% inhibited) [2]: 0.18 µg/mL (≈ 0.0772 µM) | selectivity in killing HIV infected cells (in words) [2]: particularly selective | selectivity index higher than for any of the known high endotoxin affinity compounds [2]: at least 7 fold

N=C(N)NCCC[C@H](NC(=O)[C@@H]1CSSC[C@H](NC(=O)[C@H](Cc2c[nH]c3ccccc23)NC(=O)[C@H](CCCNC(=N)N)NC(=O)[C@@H](N)CCCNC(=N)N)C(=O)N[C@@H](Cc2ccc(O)cc2)C(=O)N[C@@H](CCCNC(=N)N)C(=O)N[C@@H](CCCCN)C(=O)N[C@H]2CSSC[C@H](NC(=O)[C@H](Cc3ccccc3)NC(=O)CNC(=O)[C@H](CCCCN)NC(=O)[C@H](Cc3ccccc3)NC2=O)C(=O)N[C@@H](Cc2ccc(O)cc2)C(=O)N[C@@H](CCCNC(=N)N)C(=O)N[C@@H](CCCCN)C(=O)N1)C(N)=O [polypeptide (20), ArgArgTrpCysTyrArgLysCysPheLysGlyPheCysTyrArgLysCysArgNH2] (H-RRWCYRKCFKGFCYRKCR-NH2; disulfide 4-17, 8-13; N-terminus assumed)
CC50 (50% cytotoxic concentration) [1]: 54 µg/mL (≈ 22 µM) | EC50 (concentration at which cell death due to HIV infection is 50% inhibited) [2]: 0.01 µg/mL (≈ 0.00407 µM)
